Results published in ChEMBL document CHEMBL5154807, “Design and development of photoswitchable DFG-Out RET kinase inhibitors” (Eur J Med Chem, 2022).

Columns and labels:
[1] = biological target: T1, Proto-oncogene tyrosine-protein kinase receptor Ret (Homo sapiens, UniProt P07949); experiment: Inhibition of human RET kinase using IGF1Rtide as substrate incubated for 40 mins and measured by ADP-Glo assay
[2] = biological target: T1, Proto-oncogene tyrosine-protein kinase receptor Ret; experiment: Inhibition of full-length RET kinase expressed in human HEK293 cells and measured by NanoBRET assay; type: cell-based
[3] = Thermal stability of compound in water assessed as half-life; type: physicochemical
[4] = Thermal stability of compound in DMSO assessed as half-life; type: physicochemical
[5] = Drug degradation in 10 mM GSH after 20 hrs measured by LC-MS analysis; type: ADME; settings: 10000 µM

T1 sequence (P07949 whole entry): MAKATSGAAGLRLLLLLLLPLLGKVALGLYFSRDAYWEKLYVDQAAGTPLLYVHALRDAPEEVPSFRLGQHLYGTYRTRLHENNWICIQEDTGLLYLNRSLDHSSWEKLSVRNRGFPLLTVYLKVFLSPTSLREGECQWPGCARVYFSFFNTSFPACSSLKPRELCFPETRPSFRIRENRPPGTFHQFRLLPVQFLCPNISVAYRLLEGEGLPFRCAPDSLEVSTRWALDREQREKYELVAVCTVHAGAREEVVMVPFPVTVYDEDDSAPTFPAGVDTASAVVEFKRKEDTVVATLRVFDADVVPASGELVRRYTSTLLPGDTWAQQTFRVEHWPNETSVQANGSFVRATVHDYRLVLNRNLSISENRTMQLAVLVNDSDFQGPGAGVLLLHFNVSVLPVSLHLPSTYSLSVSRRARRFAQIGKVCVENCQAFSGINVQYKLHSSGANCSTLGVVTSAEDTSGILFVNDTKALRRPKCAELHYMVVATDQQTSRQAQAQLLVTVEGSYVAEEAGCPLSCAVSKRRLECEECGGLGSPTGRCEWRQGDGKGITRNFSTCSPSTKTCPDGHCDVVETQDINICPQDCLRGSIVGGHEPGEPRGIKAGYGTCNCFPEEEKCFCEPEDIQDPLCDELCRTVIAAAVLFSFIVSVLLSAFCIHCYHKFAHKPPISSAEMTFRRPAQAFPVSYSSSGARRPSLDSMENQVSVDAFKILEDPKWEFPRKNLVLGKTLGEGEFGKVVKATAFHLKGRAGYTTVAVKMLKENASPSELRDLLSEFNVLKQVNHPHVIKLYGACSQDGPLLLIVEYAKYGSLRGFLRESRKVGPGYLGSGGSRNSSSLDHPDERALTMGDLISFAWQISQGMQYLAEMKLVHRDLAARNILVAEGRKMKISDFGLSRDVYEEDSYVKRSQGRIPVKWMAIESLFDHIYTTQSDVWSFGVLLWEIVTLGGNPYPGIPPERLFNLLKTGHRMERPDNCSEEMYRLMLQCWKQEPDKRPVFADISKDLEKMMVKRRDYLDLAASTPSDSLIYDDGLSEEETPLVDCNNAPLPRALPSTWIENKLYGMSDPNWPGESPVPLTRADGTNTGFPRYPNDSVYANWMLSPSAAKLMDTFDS

| IC50 [1] [nM] | SMILES | further results |
| --- | --- | --- |
| 363 | COc1c(/N=N\c2cccc(C(=O)Nc3ccc(CN4CCN(C)CC4)c(C(F)(F)F)c3)c2)cnc2ccccc12 | IC50 [2]: 3890 nM |
| 2200 | CN1CCN(Cc2ccc(NC(=O)c3cccc(/C=C\c4cnc5ccccc5c4N4CCCC4)c3)cc2C(F)(F)F)CC1 | – |
| 25000 | CCc1cccc2cc(/C=C\c3cccc(C(=O)Nc4ccc(CN5CCN(C)CC5)c(C(F)(F)F)c4)c3)cnc12 | – |
| 900 | CN1CCN(Cc2ccc(NC(=O)c3cccc(/C=C\c4cnc5ccccc5c4)c3)cc2C(F)(F)F)CC1 | – |
| 49000 | CN1CCN(Cc2ccc(NC(=O)c3cccc(/C=C\c4cnc5ccccc5c4Nc4ccccc4)c3)cc2C(F)(F)F)CC1 | – |
| > 500000 | CC(C)c1cccc2cc(/C=C\c3cccc(C(=O)Nc4ccc(CN5CCN(C)CC5)c(C(F)(F)F)c4)c3)cnc12 | – |
| 5600 | CCCc1cccc2cc(/C=C/c3cccc(C(=O)Nc4ccc(CN5CCN(C)CC5)c(C(F)(F)F)c4)c3)cnc12 | – |
| 257 | Cc1cccc2cc(/C=C/c3cccc(C(=O)Nc4ccc(CN5CCN(C)CC5)c(C(F)(F)F)c4)c3)cnc12 | – |
| 1700 | CCc1cccc2cc(/C=C/c3cccc(C(=O)Nc4ccc(CN5CCN(C)CC5)c(C(F)(F)F)c4)c3)cnc12 | – |
| 98 | CN1CCN(Cc2ccc(NC(=O)c3cccc(/C=C/c4cnc5ccccc5c4N(C)C)c3)cc2C(F)(F)F)CC1 | – |
| 17 | CN1CCN(Cc2ccc(NC(=O)c3ccc(F)c(/N=N\c4cnc5ccccc5c4)c3F)cc2C(F)(F)F)CC1 | half-life [3]: 1.58 days |
| 9800 | CC(C)c1cccc2cc(/C=C/c3cccc(C(=O)Nc4ccc(CN5CCN(C)CC5)c(C(F)(F)F)c4)c3)cnc12 | – |
| 7.8 | CN1CCN(Cc2ccc(NC(=O)c3cccc(/C=C/c4cnc5ccccc5c4)c3)cc2C(F)(F)F)CC1 | – |
| > 500000 | CCCc1cccc2cc(/C=C\c3cccc(C(=O)Nc4ccc(CN5CCN(C)CC5)c(C(F)(F)F)c4)c3)cnc12 | – |
| 66 | CN1CCN(Cc2ccc(NC(=O)c3cccc(/C=C/c4cnc5ccccc5c4N4CCCC4)c3)cc2C(F)(F)F)CC1 | – |

The next lines start with the compound.

| SMILES | IC50 [1] [nM] | further results |
| --- | --- | --- |
| Cc1cccc2cc(/C=C\c3cccc(C(=O)Nc4ccc(CN5CCN(C)CC5)c(C(F)(F)F)c4)c3)cnc12 | 12600 | – |
| COc1c(/N=N/c2cccc(C(=O)Nc3ccc(CN4CCN(C)CC4)c(C(F)(F)F)c3)c2)cnc2ccccc12 | 24 | half-life [3]: 16.8 days; half-life [4]: 12.6 days; IC50 [2]: 920 nM |
| CN1CCN(Cc2ccc(NC(=O)c3cccc(/N=N/c4cnc5[nH]ccc5c4)c3)cc2C(F)(F)F)CC1 | 3 | Stability [5]: Stable; half-life [3]: 26.2 days; half-life [4]: 15.7 days |
| COc1c(/C=C/c2cccc(C(=O)Nc3ccc(CN4CCN(C)CC4)c(C(F)(F)F)c3)c2)cnc2ccccc12 | 12.4 | – |
| CN1CCN(Cc2ccc(NC(=O)c3cccc(/C=C/c4cnc5ccccc5c4Nc4ccccc4)c3)cc2C(F)(F)F)CC1 | 2300 | – |
| CN1CCN(Cc2ccc(NC(=O)c3cccc(/C=C\c4cnc5ccccc5c4N(C)C)c3)cc2C(F)(F)F)CC1 | 2400 | – |
| CN1CCN(Cc2ccc(NC(=O)c3cccc(/N=N/c4cnc5ccccc5c4)c3)cc2C(F)(F)F)CC1 | 9.5 | Stability [5]: Stable; half-life [3]: 9.04 days; half-life [4]: 8.67 days |
| CN1CCN(Cc2ccc(NC(=O)c3ccc(F)c(/N=N/c4cnc5ccccc5c4)c3F)cc2C(F)(F)F)CC1 | 11 | Stability [5]: Stable; half-life [3]: 1.58 days; half-life [4]: 32.5 days |
| CN1CCN(Cc2ccc(NC(=O)c3cccc(/N=N\c4cnc5ccccc5c4)c3)cc2C(F)(F)F)CC1 | 15 | – |
| CC(C)n1nc(-c2ccc(NC(=O)Nc3cc(C(F)(F)F)ccc3F)cc2)c2c(N)ncnc21 | 1.3 | – |
| COc1c(/C=C\c2cccc(C(=O)Nc3ccc(CN4CCN(C)CC4)c(C(F)(F)F)c3)c2)cnc2ccccc12 | 1800 | – |
